Measurements published in patent US20090317360A1, “ANTI-VIRAL INHIBITORS AND METHODS OF USE” (Genelabs Technologies, Inc., priority 2007, published 2009).

Test: Replicon assay (luciferase readout, ET cell line)
Assay type: cell-based
Details: Hepatitis C virus; 10 μM compound; ET (Huh-lucubineo-ET) cells; luciferase activity measured 48-72 hours after addition; relative to no compound control; read-out: % Inhib. at 10 μM (percent inhibition of replication)
Procedure: A cell line, ET (Huh-lucubineo-ET) is used for screening of compounds for inhibiting HCV RNA dependent RNA polymerase. The ET cell line is stably transfected with RNA transcripts harboring a I389luc-ubi-neo/NS3-3′/ET; replicon with firefly luciferase-ubiquitin-neomycin phosphotransferase fusion protein and EMCV-IRES driven NS3-5B polyprotein containing the cell culture adaptive mutations (E1202G; T12801; K1846T) (Krieger at al, 2001 and unpublished). The ET cells are grown in DMEM (Dulbeco's Modified Eagle's Medium), supplemented with 10% fetal calf serum, 2 mM Glutamine, Penicillin (100 IU/mL)/Streptomycin (100 μg/mL), 1× nonessential amino acids, and 250 μg/mL G418 (“Geneticin”). They are all available through Life Technologies (Bethesda, Md.). The cells are plated at 0.5-1.0×10^4 cells/well in the 96 well plates and incubated for 24 hrs before adding test compound. The compounds are added to the cells to achieve a final concentration of 0.1 nM to 50 μm and a final DMSO (dimethylsulfoxide) concentration of 0.5%. Luciferase activity is measured 48-72 hours later by adding a lysis buffer and the substrate (Catalog number Glo-lysis buffer E2661 and Bright-Glo luciferase system E2620 Promega, Madison, Wis.). Cells should not be too confluent during the assay. Percent inhibition of replication data is plotted relative to no compound control. Under the same condition, cytotoxicity of the compounds are determined using cell proliferation reagent, WST-1(Roche, Germany). The compounds showing antiviral activities, but no significant cytotoxicities are chosen to determine IC50 and TC50. For these determinations, a 10 point, 2-fold serial dilution for each compound was used, which spans a concentration range of 1000 fold. IC50 and TC50 values were calculated by fitting % inhibition at each concentration to the following equation:
% inhibition=100%/[(IC50/[I])^b+1]
where b is Hill's coefficient. […]

Row | Compound | inhibition at 10 µM [%]
1 | O=C(Nc1ccc(N2CCOCC2)cc1)c1cccc(-c2csc(C(=O)Nc3ccc(CN4CCS(=O)(=O)CC4)cc3)n2)c1 [Compound 107, 4-[3-(4-Morpholin-4-yl-phenylcarbamoyl)-phenyl]-thiazole-2-carboxylic acid [4-(1,1-dioxo-thiomorpholin-4-ylmethyl)-phenyl]-amide] | 36.5
2 | CCCS(=O)(=O)N1CCN(Cc2ccc(NC(=O)c3cccc(-c4csc(C(=O)Nc5ccc(CN6CCN(S(=O)(=O)CCC)CC6)cc5)n4)c3)cc2)CC1 [Compound 115, 4-(3-{4-[4-(Propane-1-sulfonyl)-piperazin-1-ylmethyl]-phenylcarbamoyl}-phenyl)-thiazole-2-carboxylic acid {4-[4-(propane-1-sulfonyl)-piperazin-1-ylmethyl]-phenyl}-amide] | 100
3 | O=C(Nc1nc(-c2ccc(C(=O)NC3CC3)cc2)cs1)c1ccc(CN2CCS(=O)(=O)CC2)cc1 [Compound 102, 4-{2-[4-(1,1-Dioxo-thiomorpholin-4-ylmethyl)-benzoylamino]-thiazol-4-yl}-N-cyclopropyl-benzamide] | 47.4
4 | O=C(Nc1ccc(CN2CCS(=O)(=O)CC2)cc1)c1cccc(-c2csc(C(=O)Nc3ccc(N4CCOCC4)cc3)n2)c1 [Compound 108, 4-{3-[4-(1,1-Dioxo-thiomorpholin-4-ylmethyl)-phenylcarbamoyl]-phenyl}-thiazole-2-carboxylic acid (4-morpholin-4-yl-phenyl)-amide] | 63.1
5 | O=C(Nc1ccc(N2CCOCC2)cc1)c1cccc(-c2csc(C(=O)Nc3ccc(N4CCOCC4)cc3)n2)c1 [Compound 112, 4-[3-(4-Morpholin-4-yl-phenylcarbamoyl)-phenyl]-thiazole-2-carboxylic acid (4-morpholin-4-yl-phenyl)-amide] | 98.5
6 | O=C(Nc1ccc(CN2CCS(=O)(=O)CC2)cc1)c1cccc(-c2csc(NC(=O)c3ccc(N4CCOCC4)cc3)n2)c1 [Compound 109, 3-[2-(4-morpholin-4-yl-benzoylamino)-thiazol-4-yl]-N-[4-(1,1-dioxo-thiomorpholin-4-ylmethyl)-phenyl]-benzamide] | 99.8
7 | CCCS(=O)(=O)N1CCN(Cc2ccc(NC(=O)c3ccc(-c4csc(C(=O)Nc5ccc(CN6CCN(S(=O)(=O)CCC)CC6)cc5)n4)cc3)cc2)CC1 [Compound 114, 4-(4-{4-[4-(Propane-1-sulfonyl)-piperazin-1-ylmethyl]-phenylcarbamoyl}-phenyl)-thiazole-2-carboxylic acid {4-[4-(propane-1-sulfonyl)-piperazin-1-ylmethyl]-phenyl}-amide] | 98
8 | O=C(Nc1ccc(N2CCOCC2)cc1)c1ccc(-c2csc(C(=O)Nc3ccc(N4CCOCC4)cc3)n2)cc1 [Compound 111, 4-[4-(4-Morpholin-4-yl-phenylcarbamoyl)-phenyl]-thiazole-2-carboxylic acid (4-morpholin-4-yl-phenyl)-amide] | 34.2
9 | O=C(Nc1ccc(CN2CCS(=O)(=O)CC2)cc1)c1ccc(-c2csc(C(=O)Nc3ccc(CN4CCS(=O)(=O)CC4)cc3)n2)cc1 [Compound 110, 4-{4-[4-(1,1-Dioxo-thiomorpholin-4-ylmethyl)-phenylcarbamoyl]-phenyl}-thiazole-2-carboxylic acid [4-(1,1-dioxo-thiomorpholin-4-ylmethyl)-phenyl]-amide] | 99.9
10 | O=C(Nc1ccc(CN2CCS(=O)(=O)CC2)cc1)c1cccc(-c2csc(C(=O)Nc3ccc(CN4CCS(=O)(=O)CC4)cc3)n2)c1 [Compound 113, 4-{3-[4-(1,1-Dioxo-thiomorpholin-4-ylmethyl)-phenylcarbamoyl]-phenyl}-thiazole-2-carboxylic acid [4-(1,1-dioxo-thiomorpholin-4-ylmethyl)-phenyl]-amide] | 89.5
11 | O=C(Nc1ccc(N2CCOCC2)cc1)c1cccc(-c2csc(NC(=O)c3ccc(CN4CCS(=O)(=O)CC4)cc3)n2)c1 [Compound 104, 3-{2-[4-(1,1-Dioxo-thiomorpholin-4-ylmethyl)-benzoylamino]-thiazol-4-yl}-N-(4-morpholin-4-yl-phenyl)-benzamide] | 95.8
12 | CCCS(=O)(=O)N1CCN(Cc2ccc(NC(=O)c3cccc(-c4csc(C(=O)Nc5ccc(N6CCOCC6)cc5)n4)c3)cc2)CC1 [Compound 116, 4-(3-{4-[4-(Propane-1-sulfonyl)-piperazin-1-ylmethyl]-phenylcarbamoyl}-phenyl)-thiazole-2-carboxylic acid (4-morpholin-4-yl-phenyl)-amide] | 99.5
